Reference: EP0294292A2, “Derivative of benzo[b]thiophene-7-carboxylic acid, process for its preparation and pharmaceutical compositions containing it” (ADIR ET COMPAGNIE, priority 1987, dated 1988)

System: récepteurs 5HT - 3
Test: Inhibition of the Bezold-Jarisch effect (reflex bradycardia after i.v. serotonin) in the anaesthetised rat
Assay type: in vivo
Description: Cette propriété est indicatrice d'un effet antagoniste des récepteurs 5HT - 3.
Cette étude est réalisée sur des rats Charles River d'un poids compris entre 350 et 400 g anesthésiés par une dose de 1,25 g.kg⁻¹ d'uréthanne administré intrapéritonéalement. La pression artérielle est enregistrée au niveau d'une artère carotide au moyen d'une cellule de pression Statham P 23 dB. La fréquence cardiaque est enregistrée à partir de la pression artérielle en utilisant un cardiotachymètre. Les enregistrements sont réalisés sur un enregistreur GOULD 2400. Un cathéter est placé dans la veine jugulaire et atteint l'oreillette droite de l'animal. L'effet Bezold-Jarisch est provoqué par une injection rapide de sérotonine à la dose de 40 µg/kg par voie intraveineuse dans l'oreillette droite. Le ralentissement cardiaque est associé à une chute de la pression artérielle qui provient de la stimulation des fibres afférentes vagales principalement localisées dans le ventricule droit.
Les produits à tester sont administrés par voie intraveineuse aux doses de 10 µg/kg, 100 µg/kg et 1 mg/kg. Un effet Bezold-Jarisch est provoqué 5, 15, 30, 45, 60, 90 et 120 minutes après injection des produits testés.
Le pourcentage d'inhibition de la bradycardie réflexe est évalué à partir du tracé de fréquence cardiaque. Les pourcentages d'inhibition provoqués par le produit de l'invention, ses isomères, des produits structuralement voisins, ainsi que par le produit de référence ICS 205930 sont indiqués dans le tableau I qui donne l'inhibition en % du réflexe Bezold chez le rat en fonction du temps; tous les produits ont été administrés par voie i.v à la même dose de 10 µg/kg.; les tests ont été réalisés sur 8 animaux.

Compound | effet Bezold-Jarisch (bradycardie et hypotension après injection de sérotonine) (rat, i.v., doses between 10 µg/kg and 1 mg/kg, result in words) | activité antagoniste 5HT₃ (summary in words, refers to tableau I) | Inhibition % après 15 min. (inhibition of reflex bradycardia (Bezold reflex), rat, i.v. 10 µg/kg, 15 min after injection, serotonin 40 µg/kg i.v., 8 animals) [%] | Inhibition % après 30 min. (inhibition of reflex bradycardia (Bezold reflex), rat, i.v. 10 µg/kg, 30 min after injection, serotonin 40 µg/kg i.v., 8 animals) [%] | Inhibition % après 60 min. (inhibition of reflex bradycardia (Bezold reflex), rat, i.v. 10 µg/kg, 60 min after injection, serotonin 40 µg/kg i.v., 8 animals) [%] | Inhibition % après 120 min. (inhibition of reflex bradycardia (Bezold reflex), rat, i.v. 10 µg/kg, 120 min after injection, serotonin 40 µg/kg i.v., 8 animals)
CN1C2CCC1CC(OC(=O)c1cccc3ccsc13)C2 (stereo not drawn) [Exemple 1, Chlorhydrate d'endo [(méthyl - 8 aza - 8 bicyclo [3.2.1]octyl - 3)oxycarbonyl] - 7 benzo [b] thiphène] | antagonise de façon intense et prolongée | actif | – | – | – | –
CN1[C@@H]2CC[C@H]1C[C@@H](OC(=O)c1c[nH]c3ccccc13)C2 [ICS 205-930] | – | – | 79 | 65 | 14 | inactif
